Experimental data from patent publication US20190248779A1, “COMPOUNDS, COMPOSITIONS, AND METHODS FOR INCREASING CFTR ACTIVITY” (Proteostasis Therapeutics, Inc., priority 2016, published 2019).

biological target: T1, ΔF508-CFTR (Homo sapiens, UniProt P13569, DEL508-508); experiment: hBE equivalent current (Ieq) assay; assay type: cell-based; settings: compound at 3 μM, 24 h; relative to a CFTR amplifier at 3 uM; AUC of equivalent chloride current; primary lung epithelial cells homozygous for ΔF508
T1 construct: Primary lung epithelial cells homozygous for the Cystic Fibrosis-causing ΔF508 mutation were differentiated for a minimum of 4 weeks; endogenous in cells; host or cells: primary lung (bronchial) epithelial cells (hBE) homozygous for ΔF508, differentiated at an air-liquid interface
T1 sequence (P13569 with tags, fused parts or gaps DEL508-508): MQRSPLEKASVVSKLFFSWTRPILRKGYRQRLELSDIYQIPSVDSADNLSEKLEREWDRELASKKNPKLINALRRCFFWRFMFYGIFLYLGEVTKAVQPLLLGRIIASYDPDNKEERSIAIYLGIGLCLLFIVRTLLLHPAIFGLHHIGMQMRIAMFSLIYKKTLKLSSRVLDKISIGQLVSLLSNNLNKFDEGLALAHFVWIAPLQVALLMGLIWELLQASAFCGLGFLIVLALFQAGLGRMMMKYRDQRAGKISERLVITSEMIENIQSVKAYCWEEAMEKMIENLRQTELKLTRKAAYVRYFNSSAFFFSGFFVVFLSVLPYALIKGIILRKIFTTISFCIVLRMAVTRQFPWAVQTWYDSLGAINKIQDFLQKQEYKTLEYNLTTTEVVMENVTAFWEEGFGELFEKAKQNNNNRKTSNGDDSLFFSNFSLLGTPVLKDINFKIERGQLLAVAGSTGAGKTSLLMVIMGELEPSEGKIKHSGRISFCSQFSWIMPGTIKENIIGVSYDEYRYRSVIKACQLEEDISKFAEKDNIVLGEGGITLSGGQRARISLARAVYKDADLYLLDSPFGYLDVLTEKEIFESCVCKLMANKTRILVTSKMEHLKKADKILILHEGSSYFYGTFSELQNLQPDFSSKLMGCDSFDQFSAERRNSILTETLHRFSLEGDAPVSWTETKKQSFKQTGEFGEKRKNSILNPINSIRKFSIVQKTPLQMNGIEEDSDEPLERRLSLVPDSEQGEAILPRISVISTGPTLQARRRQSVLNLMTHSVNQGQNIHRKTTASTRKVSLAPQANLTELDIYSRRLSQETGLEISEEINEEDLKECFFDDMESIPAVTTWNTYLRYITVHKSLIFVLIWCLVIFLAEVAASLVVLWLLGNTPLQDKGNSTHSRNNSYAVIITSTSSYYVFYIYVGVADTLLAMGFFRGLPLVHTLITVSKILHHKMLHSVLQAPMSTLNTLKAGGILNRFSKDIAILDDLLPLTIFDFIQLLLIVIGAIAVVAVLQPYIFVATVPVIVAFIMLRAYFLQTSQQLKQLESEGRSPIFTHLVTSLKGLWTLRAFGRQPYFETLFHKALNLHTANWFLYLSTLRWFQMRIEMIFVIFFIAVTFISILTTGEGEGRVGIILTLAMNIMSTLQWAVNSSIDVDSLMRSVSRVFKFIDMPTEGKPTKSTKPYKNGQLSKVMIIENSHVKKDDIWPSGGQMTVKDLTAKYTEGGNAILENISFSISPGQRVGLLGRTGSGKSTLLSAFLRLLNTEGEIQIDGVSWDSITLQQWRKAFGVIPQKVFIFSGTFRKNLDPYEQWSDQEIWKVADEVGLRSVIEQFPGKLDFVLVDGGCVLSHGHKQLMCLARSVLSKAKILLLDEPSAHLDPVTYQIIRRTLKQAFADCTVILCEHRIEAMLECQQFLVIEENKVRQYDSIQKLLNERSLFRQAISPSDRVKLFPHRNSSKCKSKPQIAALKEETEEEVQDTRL
Description: ii. hBE Equivalent Current (Ieq) Assay
Primary lung epithelial cells homozygous for the Cystic Fibrosis-causing ΔF508 mutation were differentiated for a minimum of 4 weeks in an air-liquid interface on Costar 24 well HTS filter plates prior to the equivalent current (Ieq) measurements. Cells were apically mucus-washed for 30 minutes 24 h prior to treatment with compounds. The basolateral media was removed and replaced with media containing the compound of interest diluted to its final concentration from DMSO stocks. Treated cells were incubated at 37° C. and 5% CO2 for 24 hours. At the end of the treatment period, the media was changed to the Ieq experimental solution for 2 hours before the experiment and plates are maintained in a CO2-free incubator during this period. The plates containing the cells were then placed in pre-warmed heating blocks at 36° C.±0.5 for 15 minutes before measurements are taken. The transepithelial voltage (VT) and conductance (GT) were measured using a custom 24 channel current clamp (TECC-24) with 24 well electrode manifold. The Ieq assay measurements were made following additions with standardized time periods:
1. The baseline VT and GT values were measured for approximately 20 minutes.
2. Benzamil was added to block ENaC for 15 minutes.
3. Forskolin plus VX-770 were added to maximally activate ΔF508-CFTR for 27 minutes.
4. Bumetanide was added to inhibit the NaK2Cl cotransporter and shut-off secretion of chloride.
The activity data captured was the area under the curve (AUC) for the traces of the equivalent chloride current. The AUC was collected from the time of the forskolin/VX-770 addition until the inhibition by bumetanide addition. Correction in response to compound treatment was scored as the increase in the AUC for compound-treated samples over that of vehicle-treated samples.
The results are shown below in Table 1. + indicates activity <150% of a CFTR amplifier with compound at concentration shown and amplifier at 3 uM; ++ indicates activity >150% of a CFTR amplifier with compound at concentration shown and amplifier at 3 uM.

SMILES | Activity 3 μM
COc1cccc(-c2ccc(=O)n(C(C)C(=O)Nc3ccc(C(F)(F)F)cc3)n2)n1 (centres unmarked) [Compound 22, 2-(3-(6-Methoxypyridin-2-yl)-6-oxopyridazin-1(6H)-yl)-N-(4-(trifluoromethyl)phenyl)propanamide] | ++ (activity >150% of a CFTR amplifier with compound at concentration shown and amplifier at 3 uM)

same assay, conditions: compound at 10 μM, 24 h; relative to a CFTR amplifier at 3 uM; AUC of equivalent chloride current; primary lung epithelial cells homozygous for ΔF508

SMILES | Activity 10 μM
COc1ccnc(-c2ccc(=O)n(C(C)C(=O)Nc3ccc(C(F)(F)F)cc3)n2)c1 (centres unmarked) [Compound 21, 2-(3-(4-Methoxypyridin-2-yl)-6-oxopyridazin-1(6H)-yl)-N-(4-(trifluoromethyl)phenyl)propanamide] | + (activity <150% of a CFTR amplifier with compound at concentration shown and amplifier at 3 uM)
COc1cccc(-c2ccc(=O)n(C(C)C(=O)Nc3ccc(C(F)(F)F)cc3)n2)n1 (centres unmarked) [Compound 22, 2-(3-(6-Methoxypyridin-2-yl)-6-oxopyridazin-1(6H)-yl)-N-(4-(trifluoromethyl)phenyl)propanamide] | + (activity <150% of a CFTR amplifier with compound at concentration shown and amplifier at 3 uM)
CC(C(=O)Nc1ccc(C(F)(F)F)cc1)n1nc(-c2cc(Cl)cs2)ccc1=O (centres unmarked) [Compound 23, 2-(3-(4-Chlorothiophen-2-yl)-6-oxopyridazin-1(6H)-yl)-N-(4-(trifluoromethyl)phenyl)propanamide] | ++ (activity >150% of a CFTR amplifier with compound at concentration shown and amplifier at 3 uM)
CC(C(=O)Nc1ccc(C(F)(F)F)cc1)n1nc(-c2ccsc2Cl)ccc1=O (centres unmarked) [Compound 24, 2-(3-(2-Chlorothiophen-3-yl)-6-oxopyridazin-1(6H)-yl)-N-(4-(trifluoromethyl)phenyl)propanamide] | ++ (activity >150% of a CFTR amplifier with compound at concentration shown and amplifier at 3 uM)
CC(C(=O)Nc1ccc(C(F)(F)F)cc1)n1nc(-c2cc(Cl)sc2Cl)ccc1=O (centres unmarked) [Compound 25, 2-(3-(2,5-Dichlorothiophen-3-yl)-6-oxopyridazin-1(6H)-yl)-N-(4-(trifluoromethyl)phenyl)propanamide] | + (activity <150% of a CFTR amplifier with compound at concentration shown and amplifier at 3 uM)
CC(C(=O)Nc1ccc(C(F)(F)F)cc1)n1nc(-c2csc(Cl)n2)ccc1=O (centres unmarked) [Compound 26, 2-[3-(2-Chloro-1,3-thiazol-4-yl)-6-oxo-1,6-dihydropyridazin-1-yl]-N-[4-(trifluoromethyl)phenyl]propanamide] | + (activity <150% of a CFTR amplifier with compound at concentration shown and amplifier at 3 uM)
CC(C(=O)Nc1ccc(C(F)(F)F)cc1)n1nc(-c2cnc(Cl)s2)ccc1=O (centres unmarked) [Compound 27, 2-[3-(2-Chloro-1,3-thiazol-5-yl)-6-oxo-1,6-dihydropyridazin-1-yl]-N-[4-(trifluoromethyl)phenyl]propanamide] | + (activity <150% of a CFTR amplifier with compound at concentration shown and amplifier at 3 uM)
